From patent US20110269807A1, “NOVEL TREATMENT FOR AGE RELATED MACULAR DEGENERATION AND OCULAR ISCHEMIC DISEASE ASSOCIATED WITH COMPLEMENT ACTIVATION BY TARGETING 5-LIPOXYGENASE” (ALLERGAN, INC., priority 2010, published 2011)
“Also recorded” adds a separate entry of the source.

Legend:
ARPE-19 cells [1] = experiment: Complement mediated cell death assay on RPE cells in the context of oxidative stress (cell protection assay, NIH clinical collection library screen); type: cell-based; conditions: for protection against cell death mediated by complement attack and oxidative stress: versus vehicle (DMSO)
Experimental: ARPE-19 cells were plated at sub confluence in 96 well culture plates and cultured 24 to 48 hrs. The cells were then treated with 1:1000 dilution of each compound from the NIH clinical collection library overnight. The following day culture media was collected and set aside. The cells were washed and then treated with 0.77 mM H2O2 in hanks buffered saline solution (HBSS) for 90 minutes in the presence of fresh compound from NIH clinical collection library at a 1:1000 dilution. Cells were then washed and primed with a solution of HBSS containing 24% S-58 for 30 minutes. After the priming step cells were washed and then treated with 6% C1q deficient human serum in the original cell culture supernatant collected prior to H2O2 treatment. 90 minutes after addition of the human serum cells were labeled with the membrane impermeant nuclear dye SYTOX® orange and the number of positive cells determined. This count was then used to determine level of cell death. Quantitation and imaging were accomplished by capturing a single field per objective using a 10× objective and then counting the number of positive nuclei using metamorph image analysis software. Data was collected and expressed as % protection relative to wells containing vehicle alone (DMSO).
Data was collected and the level of protection by each compound determined by averaging the results of two independent experiments. FIG. 4 is the distribution of results indexed to compound plate (y-axis) and Protection (x-axis). […] FIG. 5 contains a list of compounds with protective properties. Of the 17 compounds selected, six compounds (Zeranol, Penciclovir, Rifapentine, Rifaximin, calcitrol, 3-[3,5-DIBROMO-4-HYDROXYBENZOYL]-2-ETHYLBENZOFURAN) were deemed to function as anti-oxidants in the assay. Of the remaining 11 compounds, four fall into a single class associated with modulation of the arachidonic acid pathway. This included Zileuton, Zafirlukast, Montelukast, and Loxoprofen. […] The targeting was both direct at 5-lipoxygenase (Zileuton) and indirect at the leukotiene receptor (Zafirlukast, Montelukast).
The observation that inhibition of 5-lipoxygenase is protective against the combined effects of oxidative stress and complement attack in ARPE-19 cells prompted us to test the 5 lipoxygenase activating protein inhibitor MK886 for its ability to protect ARPE-19 cells from oxidative stress and complement attack in vitro. The cell protection assay was carried out essentially as described in Examples 1-4.
In addition to the MK886 inhibitor we also evaluated other know 5-lipoxygenase inhibitors, including 2-TEDC and monocyclin, for their ability to protect ARPE-19 cells against oxidative stress and complement attack, using the cell protection assay described in Examples 1-4.

5-lipoxygenase = molecular target: T1, 5-lipoxygenase (Homo sapiens, UniProt P09917); conditions: read-out: known I.C.50 inhibition of 5-lipoxygenase; Cho et al., J Med Chem 1991; cited from earlier work
T1 sequence (P09917 1-674): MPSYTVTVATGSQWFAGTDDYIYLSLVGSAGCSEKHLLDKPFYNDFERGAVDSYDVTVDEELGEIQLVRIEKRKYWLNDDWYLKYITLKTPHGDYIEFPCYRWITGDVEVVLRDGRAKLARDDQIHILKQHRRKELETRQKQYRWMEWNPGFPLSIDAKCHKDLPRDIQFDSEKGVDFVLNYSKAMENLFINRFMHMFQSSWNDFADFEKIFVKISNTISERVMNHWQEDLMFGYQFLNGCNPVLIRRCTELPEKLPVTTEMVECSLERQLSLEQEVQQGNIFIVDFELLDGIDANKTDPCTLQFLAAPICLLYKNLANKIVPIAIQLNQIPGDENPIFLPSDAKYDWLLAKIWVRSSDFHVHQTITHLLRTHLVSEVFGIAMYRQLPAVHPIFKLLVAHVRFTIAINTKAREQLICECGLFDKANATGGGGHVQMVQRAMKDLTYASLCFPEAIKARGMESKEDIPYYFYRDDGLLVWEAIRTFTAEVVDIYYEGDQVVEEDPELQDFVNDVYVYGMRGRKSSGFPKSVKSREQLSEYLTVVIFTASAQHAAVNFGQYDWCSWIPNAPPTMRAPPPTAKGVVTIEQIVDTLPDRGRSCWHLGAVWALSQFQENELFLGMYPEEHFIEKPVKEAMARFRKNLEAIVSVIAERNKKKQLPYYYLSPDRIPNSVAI

ARPE-19 cells [2] = experiment: Oxidative stress followed by challenge with complement, cell death; type: cell-based; conditions: then challenge with complement
Excerpt: Oxidative stress and complement activation are the two most highly cited factors associated with occurrence and progression of AMD. To examine functional consequences of this relationship we treated ARPE-19 cells with either H2O2 or t-BH followed by challenge with complement. […] FACS analysis of ARPE-19 after treatment with t-Bh or H2O2 indicated minimal impact in expression levels (FIG. 3B).

Balb/c mice [3] = experiment: Blue light induced retinal damage, ERG; type: in vivo; conditions: 1 mg/Kg PO BID 14 days; ERG 2 weeks post blue light; p<0.05
Excerpt: To further explore the protective effects of inhibition of the 5-lipoxygenase pathway, we examined the ability of 5-lipoxygenase inhibition in two in vivo models. The first in vivo model was a model of retinal oxidative stress induced by intravitreal injection of Paraquat in SOD1−/+ animals (Dong, A., et al., Superoxide dismutase 1 protects retinal cells from oxidative damage. J Cell Physiol, 2006. 208(3): p. 516-26). In addition to elevation of oxidative stress Paraquat is also known to induce activation of complement (Sun, S., et al. (2011 Mar. 18) “Complement Inhibition Alleviates Paraquat-Induced Acute Lung Injury” Am J Respir Cell Mol Biol. EPub), allowing us to examine effects of oxidative stress and complement activation in vivo similar to that observed in the in vitro RPE assay, above. The second in vivo model in which we examined the effects of 5-lipoxygenase inhibition was a rodent light induced retinal degeneration model. […]
The ERG was performed 2 weeks post blue light (4 days post OCT to allow for cataracts to clear). […] The ERG was then recorded with the animal on a heating pad (takes 7-8 minutes). Animals were revived by administration of 0.5 mg/kg atipamezole (injected i.p.), returned to their cages, and warmed using a heating pad and monitored until awake.

Balb/c mice [4] = experiment: Blue light induced retinal damage, outer nuclear layer histology scoring; type: in vivo; conditions: 1 mg/Kg PO BID 14 days; blue light 4800 lux 8 hours
Experimental: Balb/c mice were dosed orally (PO) at 1 mg/Kg starting 16 hours prior to blue light, and then BID for the next 14 days. Control animal received an equivalent volume of vehicle (0.5% Avicel R-91 and 0.1% Tween-80 in dH2O) to compound treated animals.
Animals were first dark adapted for 16 hours prior to blue light. Animals were then exposed to blue light at 4800 lux for 8 hours. Animals were then moved to normal housing conditions.
Eyes were immersion fixed over night at room temperature in Davidson's Fix special (BBC Biochemical, Mt Vernon, Wash.), dehydrated for 1 hr in 50% EtOH at room temperature, and then placed into 70% EtOH at room temperature. Eyes were stored in 70% EtOH until subjected to automated paraffin processing. After processing, eyes were embedded in paraffin, sectioned on a rotary microtome at 5 μm thickness through the optic nerve head parallel to the vertical meridian, and mounted on glass slides. Sections were baked onto slides, subjected to automated H&E staining, and coverslipped using permanent mounting medium. Stained tissue sections were then examined by an observed blinded to treatment regiments and scored to determine the level of damage to the outer nuclear layer.

With N#C/C(=C\c1ccc(O)c(O)c1)C(=O)OCCc1cccs1 [2-TEDC] the IC50 (ARPE-19 cells [1]; Homo sapiens, FIG. 7, read-out: I.C.50 of blocking cell death within the assay system) was 0.1 µM, the “activity at the known I.C. 50 for 12 lipoxygenase” value (ARPE-19 cells [1]; concentration = known I.C.50 for 12 lipoxygenase) was “little activity” and the “protection at the known I.C.50 for 15 lox” value (ARPE-19 cells [1]; concentration = known I.C.50 for 15 lox) was about 100%. The “protection against cell death mediated by complement attack and oxidative stress” value (“protection against cell death mediated” below) (ARPE-19 cells [1]) was “dose dependently protected; also recorded: dose dependent protection” and the IC50 (5-lipoxygenase) was 0.09 µM.
With OO [H2O2] the “increase in cell death” value (ARPE-19 cells [2]) was over 10 fold.
In the case of CC(C)c1ccc2c(c1)c(SC(C)(C)C)c(CC(C)(C)C(=O)[O-])n2Cc1ccc(Cl)cc1.[Na+] [MK886, 1-[(4-chlorophenyl)methyl]-3-[(1,1-dimethylethyl)thio]-α,α-dimethyl-5-(1-methylethyl)-1H-indole-2-propanoic acid, sodium salt], the “protection against cell death mediated” value (ARPE-19 cells [1]; sodium salt) is reported as “dose dependently protected; also recorded: protects; also recorded: effectively blocked cell death in a dose dependent manner”.
For c1ccc2c(c1)SCc1c-2[nH]c2ccccc12 [PD146176, 6,11-dihydro-[1]benzothiopyrano[4,3-b]indol], the “protection against cell death mediated” value (ARPE-19 cells [1]) was “no protection; also recorded: no protective activity”.
In the case of Cn1nccc1-c1ccc(Sc2cccc(C3(C(N)=O)CCOCC3)c2)cc1 [PF-4191834, 4-(3-(4-(1-Methyl-1H-pyrazol-5-yl)phenylthio)phenyl)-tetrahydro-2H-pyran-4-carboxamide], the “protection against loss of retinal ERG A-wave amplitude” value (Balb/c mice [3]) is reported as “protected against the loss of ERG A-wave amplitude; also recorded: protected against functional loss” and the “retinal structure / outer nuclear layer thickness” value (Balb/c mice [4]) is reported as “protected retinal structure and preserved photoreceptors”.
For CC(C)(C)OO [t-BH], the “increase in cell death” value (ARPE-19 cells [2]) was 20-30%.
